Assay results taken from patent US20260206761A1, “HETEROARYL-TRIAZOLE COMPOUNDS AS PESTICIDES” (Bayer Aktiengesellschaft, priority 2019, published 2026).

Assays:
Format in all cases: in vivo
[1] = system: Aedes aegypti strain MONHEIM; assay: Aedes aegypti test (AEDSAE surface treatment & contact assay); conditions: 24 hours after contact, read-out: efficacy (mortality); for mortality at 4 mg/m2: surface concentration 4 mg/m^2, exposure 30 minutes; for mortality at 20 mg/m2: surface concentration 20 mg/m^2, exposure 30 minutes
Method in brief: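 Compound in acetone (2 mg/ml) with 2000 ppm RME pipetted onto glazed tile and dried; adult Aedes aegypti MONHEIM exposed 30 min. Percent mortality scored 24 h after contact.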

[2] = system: adult cat fleas (Ctenocephalides felis); assay: Ctenocephalides felis in-vitro contact test, adult cat flea; conditions: application rate 5 μg/cm^2 (=500 g/ha), after 48 hours, read-out: activity (efficacy: fleas dead or moribund)
Method in brief: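 Acetone solutions of compound coated onto inner walls of glass tubes (900 ppm giving […]); after drying, 5-10 adult Ctenocephalides felis added and held at room temperature. At 48 h, fleas placed on a 45-50° C heating plate; those unable to climb away scored dead or moribund, expressed as % efficacy.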

[3] = system: fall armyworm larvae (Spodoptera frugiperda); assay: Spodoptera frugiperda spray test; conditions: 168 h, read-out: activity (mortality)
Method in brief: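 Compound in acetone/DMF, diluted in water with 1000 ppm alkylarylpolyglycol ether emulsifier, sprayed on maize leaf sections. Dried leaves infested with fall armyworm larvae; % mortality after 7 days (100% = all killed, 0% = none).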

[4] = system: adult unfed cat fleas (Ctenocephalides felis); assay: Ctenocephalides felis oral test; conditions: 48 h, read-out: activity (mortality)
Method in brief: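 About 20 adult unfed fleas fed through parafilm on cattle blood containing compound (DMSO stock diluted in blood), blood held at 37 °C and fleas at room temperature. Mortality (%) scored after 2 days.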

[5] = system: adult engorged female ticks (Rhipicephalus microplus); assay: Rhipicephalus (Boophilus) microplus injection test; conditions: 168 h, egg deposition after 7 days, read-out: activity (efficacy: infertile eggs); for pest or weed control at 4 pg: application rate 4 pg/animal; for pest or weed control at 0.02 mg: application rate 20 μg/animal
Method in brief: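 Five adult engorged female ticks injected into the abdomen with 1 μL compound solution in DMSO, then held in a climate chamber. Fertile egg deposition assessed after 7 days, unclear eggs kept until hatching (about 42 days); efficacy 100% = all eggs infertile, 0% = all fertile.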

[6] = system: larvae of the southern green stink bug (Nezara viridula); assay: Nezara viridula spray test; conditions: 96 h, after 4 days; for mortality at 500 g/ha: application rate 500 g/ha; for mortality at 100 g/ha: application rate 100 g/ha
Method in brief: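 Compound in acetone/dimethylformamide, diluted in water with 1000 ppm alkylarylpolyglycol ether emulsifier, sprayed onto barley plants carrying stink bug larvae. Mortality (%) scored after 4 days, 100% meaning all insects killed.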

[7] = system: Rhipicephalus microplus larvae (strain Parkhurst, resistant against synthetic pyrethroids); assay: Rhipicephalus (Boophilus) microplus in-vitro contact test, larval cattle tick; conditions: after 48 hours, read-out: activity (efficacy: larvae dead or moribund); for pest or weed control at 100 g/ha: application rate 1 pg/cm^2 (=100 g/ha); for pest or weed control at 500 g/ha: application rate 5 pg/cm^2 (=500 g/ha)
Method in brief: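 Acetone solutions coated onto inner walls of glass tubes by rotation (900 ppm giving 5 μg/cm^2); after evaporation, 20-50 larvae added per tube and held at 27° C., 85% relative humidity. Efficacy read after 48 h from negative geotactic behaviour; 100% = all larvae dead or moribund.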

[8] = system: green peach aphid (Myzus persicae); assay: Myzus persicae spray test; conditions: 120 h, after 5 days; for mortality at 100 g/ha: application rate 100 g/ha
Method in brief: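 Chinese cabbage leaf disks carrying all instars of M. persicae sprayed with compound in acetone/DMF, diluted in water with 1000 ppm alkylarylpolyglycol ether emulsifier. Percent mortality scored after 5 days (100% = all aphids killed).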

Structure (SMILES)	mortality at 4 mg/m2 [1] [%]	mortality at 20 mg/m2 [1] [%]	pest or weed control at 5 µg/cm2 [2] [%]	mortality at 100 g/ha [3] [%]	mortality at 500 g/ha [3] [%]	mortality at 100 ppm [4] [%]	pest or weed control at 4 pg [5] [%]	pest or weed control at 0.02 mg [5] [%]	mortality at 500 g/ha [6] [%]	pest or weed control at 100 g/ha [7] [%]	pest or weed control at 500 g/ha [7] [%]	mortality at 100 g/ha [8] [%]	mortality at 100 g/ha [6] [%]	mortality at 500 g/ha ([8]; application rate 500 g/ha) [%]
C[C@H](NC(=O)c1cc(Cl)cc(S(=O)(=O)C(F)F)c1)c1ncnn1-c1ccc(C#N)cn1 [II-17]	80 to 100	80 to 100	100	83	100	100	100	100	100	100	100			
Cc1nc([C@H](C)NC(=O)c2cc(OC(F)(F)F)cc(C3CC3)c2)n(-c2ccc(C#N)cn2)n1 [II-39]	80 to 100	80 to 100	100	100		100	100	100		100	100			
CC(C)c1nc([C@H](C)NC(=O)c2cc(OC(F)(F)F)cc(C3CC3)c2)n(-c2ccc(C#N)cn2)n1 [I-23]	80 to 100	80 to 100	100	100		100	100	100		100	100	90		
C[C@H](NC(=O)c1cc(Cl)cc(S(C)(=O)=O)c1)c1nc(C2CC2)nn1-c1ccc(C#N)cn1 [I-4]	80 to 100	80 to 100	90	100	100	100	100	100	100	90			100	
C[C@H](NC(=O)c1cc(C(F)(F)F)cc(S(C)(=O)=O)c1)c1ncnn1-c1ccc(Cl)cn1 [II-16]	80 to 100	80 to 100	100	100	100	100	100	100	100	100	100		100	
C[C@H](NC(=O)c1cc(C(F)(F)F)cc(S(C)(=O)=O)c1)c1ncnn1-c1ncccn1 [II-13]	80 to 100	80 to 100	100		100		100	100	100		80	90	100	100
C[C@H](NC(=O)c1cc(C2CC2)cc(C(F)(F)F)c1)c1ncnn1-c1ccc(Cl)cn1 [II-27]	80 to 100	80 to 100	100	100	100	100	100	100	100	100	100		100	
C[C@H](NC(=O)c1cc(Cl)cc(S(=O)(=O)C(F)(F)F)c1)c1ncnn1-c1ncc(OC(F)F)cn1 [II-43]	80 to 100	80 to 100	100	100		100	100	100		100	100		100	
